According to patent US20220016115A1, “USP19 INHIBITORS FOR USE IN THERAPY” (ALMAC DISCOVERY LIMITED, priority 2018, published 2022):
pIC50: −log10 of the molar value.

The molecules below were run against T1, USP19 (Homo sapiens, UniProt O94966) (assay: USP19 fluorescence polarisation (FP) homogeneous assay). Details: Ubiquitin-Lys-TAMRA substrate, full-length USP19 2.5 nM, average of at least two duplicate experiments.
T1 sequence (O94966 1-1318): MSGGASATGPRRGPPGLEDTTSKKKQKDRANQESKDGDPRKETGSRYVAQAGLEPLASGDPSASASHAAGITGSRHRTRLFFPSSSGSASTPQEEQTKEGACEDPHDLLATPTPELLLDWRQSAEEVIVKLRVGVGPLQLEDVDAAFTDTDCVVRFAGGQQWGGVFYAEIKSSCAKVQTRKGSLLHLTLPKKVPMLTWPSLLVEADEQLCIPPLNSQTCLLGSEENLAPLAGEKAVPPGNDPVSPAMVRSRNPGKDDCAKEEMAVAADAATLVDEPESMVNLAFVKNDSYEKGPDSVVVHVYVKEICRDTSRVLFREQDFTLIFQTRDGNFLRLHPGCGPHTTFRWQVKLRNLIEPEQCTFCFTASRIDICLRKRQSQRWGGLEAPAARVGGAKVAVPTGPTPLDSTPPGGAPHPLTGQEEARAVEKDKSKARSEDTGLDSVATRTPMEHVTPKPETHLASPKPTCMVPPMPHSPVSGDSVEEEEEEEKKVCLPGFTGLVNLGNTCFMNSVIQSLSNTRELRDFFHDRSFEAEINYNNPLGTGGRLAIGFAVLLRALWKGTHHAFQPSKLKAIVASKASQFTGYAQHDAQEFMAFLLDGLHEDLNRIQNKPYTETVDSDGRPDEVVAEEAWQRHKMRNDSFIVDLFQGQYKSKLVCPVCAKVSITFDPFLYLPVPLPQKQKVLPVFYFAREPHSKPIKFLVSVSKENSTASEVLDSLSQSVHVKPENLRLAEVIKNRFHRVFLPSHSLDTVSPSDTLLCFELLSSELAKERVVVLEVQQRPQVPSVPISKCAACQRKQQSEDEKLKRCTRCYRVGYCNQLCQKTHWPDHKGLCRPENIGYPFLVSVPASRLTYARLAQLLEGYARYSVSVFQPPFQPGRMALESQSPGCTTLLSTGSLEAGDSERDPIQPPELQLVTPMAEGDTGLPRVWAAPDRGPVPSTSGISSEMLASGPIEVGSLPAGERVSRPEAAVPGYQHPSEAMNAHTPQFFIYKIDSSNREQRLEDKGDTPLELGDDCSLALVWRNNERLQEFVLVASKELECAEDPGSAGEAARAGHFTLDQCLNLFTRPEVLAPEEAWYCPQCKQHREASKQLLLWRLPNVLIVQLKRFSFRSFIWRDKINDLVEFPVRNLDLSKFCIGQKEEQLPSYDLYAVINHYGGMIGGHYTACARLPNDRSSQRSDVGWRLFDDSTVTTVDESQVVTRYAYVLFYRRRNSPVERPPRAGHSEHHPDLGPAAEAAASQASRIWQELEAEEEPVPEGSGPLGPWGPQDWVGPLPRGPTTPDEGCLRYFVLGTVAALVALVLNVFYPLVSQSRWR
Format: biochemical
Parameters: Full-length USP19 was purchased from Boston Biochem (E-576); purchased Boston Biochem E-576
Method: Unless otherwise stated, all other reagents were purchased from Sigma. Enzymatic reactions were conducted in black flat bottom polystyrene 384-well plates (Nunc) and 30 μL total volume. […] Inhibitors were stored as 10 mM DMSO stocks in an inert environment (low humidity, dark, low oxygen, room temperature) using the Storage Pod System and serial dilutions were prepared in buffer just prior to the assay (from 200 μM to 2 μM, 8-18 data point curve). Following incubation at RT for 30 min, the enzymatic reactions were initiated by dispensing the Ub substrate (500 nM, 10 μL). FP was measured every 15 min over a period of 90 min (within the linear range of the assay) using a Synergy 4 plate reader (BioTek) exciting at 530 nm and measuring the amount of parallel and perpendicular light at 575 nm. The FP signal was subsequently normalised to the no compound control.
In the case of `C[C@H](CC1CCCCC1)C(=O)N1CCC(O)(Cn2cc(C(=O)N(C)C)c(Cl)cc2=O)C2(CCCC2)C1` (stereo partly drawn) [Example 144, 4-Chloro-1-((7-((R)-3-cyclohexyl-2-methylpropanoyl)-10-hydroxy-7-azaspiro[4.5]decan-10-yl)methyl)-N,N-dimethyl-6-oxo-1,6-dihydropyridine-3-carboxamide], the pIC50 was > 6.30. `C[C@H](CC1CCCCC1)C(=O)N1CC[C@@](O)(Cn2cc(C(=O)N3CCNCC3)c(C3CC3)cc2=O)C2(CCCC2)C1` [Example 233, 1-(((S)-7-((R)-3-Cyclohexyl-2-methylpropanoyl)-10-hydroxy-7-azaspiro[4.5]decan-10-yl)methyl)-4-cyclopropyl-5-(piperazine-1-carbonyl)pyridin-2(1H)-one] was tested, and the pIC50 was > 6.30. With `CN(C)C(=O)c1cn(CC2(O)CCN(C(=O)C(O)CC3CCCCC3)CC23CCCC3)c(=O)cc1-c1ccccc1` (stereo not shown) [Example 157, 1-((7-(3-Cyclohexyl-2-hydroxypropanoyl)-10-hydroxy-7-azaspiro[4.5]decan-10-yl)methyl)-N,N-dimethyl-6-oxo-4-phenyl-1,6-dihydropyridine-3-carboxamide] the pIC50 was > 6.30. `C[C@H](CC1CCCCC1)C(=O)N1CC[C@@](O)(Cn2cc(C(=O)N3CCN(C)CC3)c(-c3ccccc3)cc2=O)C2(CCCC2)C1` [Example 240, 1-(((S)-7-((R)-3-Cyclohexyl-2-methylpropanoyl)-10-hydroxy-7-azaspiro[4.5]decan-10-yl)methyl)-5-(4-methylpiperazine-1-carbonyl)-4-phenylpyridin-2(1 H)-one] was tested, and the pIC50 was > 6.30. `C[C@H](CC1CC1)C(=O)N1CCC(O)(Cn2cc(C(=O)N(C)C)c(-c3ccccc3)cc2=O)C2(CCCC2)C1` (stereo partly drawn) [Example 149, 1-((7-((R)-3-Cyclopropyl-2-methylpropanoyl)-10-hydroxy-7-azaspiro[4.5]decan-10-yl)methyl)-N,N-dimethyl-6-oxo-4-phenyl-1,6-dihydropyridine-3-carboxamide] was tested, and the pIC50 was > 6.30. For `C[C@H](CC(F)(F)F)C(=O)N1CC[C@@](O)(Cn2cc(C(=O)N(C)C)c(-c3ccccc3)cc2=O)C2(CCCC2)C1` [Example 216, 1-(((S)-10-Hydroxy-7-((R)-4,4,4-trifluoro-2-methylbutanoyl)-7-azaspiro[4.5]decan-10-yl)methyl)-N,N-dimethyl-6-oxo-4-phenyl-1,6-dihydropyridine-3-carboxamide], the pIC50 was > 6.30. In the case of `C[C@H](CC1CCCCC1)C(=O)N1CCC(O)(Cn2cc(C(=O)N3CCN(C)CC3)c(-c3ccccc3)cc2=O)C(C)(C)C1` (stereo partly drawn) [Example 170, 1-((1-((R)-3-Cyclohexyl-2-methylpropanoyl)-4-hydroxy-3,3-dimethylpiperidin-4-yl)methyl)-5-(4-methylpiperazine-1-carbonyl)-4-phenylpyridin-2(1H)-one], the pIC50 was > 6.30. For `C[C@H](CC1CCCCC1)C(=O)N1CCC(O)(Cn2cnc(-c3ccc(CO)cc3)cc2=O)C(C)(C)C1` (stereo partly drawn) [Example 139, 3-((1-((R)-3-Cyclohexyl-2-methylpropanoyl)-4-hydroxy-3,3-dimethylpiperidin-4-yl)methyl)-6-(4-(hydroxymethyl)phenyl)pyrimidin-4(3H)-one], the pIC50 was > 6.30. For `CC(C)CC(C)C(=O)N1CCC(O)(Cn2cc(C(=O)N(C)C)c(-c3ccccc3)cc2=O)C2(CCCC2)C1` (stereo not shown) [Example 197, 1-((7-(2,4-Dimethylpentanoyl)-10-hydroxy-7-azaspiro[4.5]decan-10-yl)methyl)-N,N-dimethyl-6-oxo-4-phenyl-1,6-dihydropyridine-3-carboxamide], the pIC50 was > 6.30. With `CC(=O)N1CCN(C(=O)c2cn(CC3(O)CCN(C(=O)[C@H](C)CC4CCCCC4)CC3(C)C)c(=O)cc2-c2ccccc2)CC1` (stereo partly shown) [Example 169] the pIC50 was > 6.30. Molecule `CN(C)C(=O)c1cn(C[C@@]2(O)CCN(C(=O)[C@H](CO)CC3CCC3)CC2(C)C)c(=O)cc1-c1ccccc1` [Example 167, 1-(((R)-1-((S)-3-Cyclobutyl-2-(hydroxymethyl)propanoyl)-4-hydroxy-3,3-dimethylpiperidin-4-yl)methyl)-N,N-dimethyl-6-oxo-4-phenyl-1,6-dihydropyridine-3-carboxamide] has a pIC50 of 4.30 to 5.30. In the case of `CN(C)C(=O)c1cn(C[C@@]2(O)CCN(C(=O)[C@H](CO)CC3CCCCC3)CC2(C)C)c(=O)cc1-c1ccccc1` [Example 153, 1-(((R)-1-((S)-3-Cyclohexyl-2-(hydroxymethyl)propanoyl)-4-hydroxy-3,3-dimethylpiperidin-4-yl)methyl)-N,N-dimethyl-6-oxo-4-phenyl-1,6-dihydropyridine-3-carboxamide], the pIC50 was 4.30 to 5.30. `C[C@H](CC(F)(F)F)C(=O)N1CC[C@@](O)(Cn2cc(C(=O)N3CCN(C)CC3)c(-c3ccccc3)cc2=O)C2(CCCC2)C1` [Example 251, 1-(((S)-10-Hydroxy-7-((R)-4,4,4-trifluoro-2-methylbutanoyl)-7-azaspiro[4.5]decan-10-yl)methyl)-5-(4-methylpiperazine-1-carbonyl)-4-phenylpyridin-2(1 H)-one] was tested, and the pIC50 was > 6.30. `C[C@H](CC(=O)N1CCC(O)(Cn2cnc(-c3ccccc3)cc2=O)C(C)(C)C1)c1ccccc1` (mixture of isomers) [Example 53, 3-(((S)-4-Hydroxy-3,3-dimethyl-1-((R)-3-phenylbutanoyl)piperidin-4-yl)methyl)-6-phenylpyrimidin-4(3H)-one and 3-(((R)-4-hydroxy-3,3-dimethyl-1-((R)-3-phenylbutanoyl)piperidin-4-yl)methyl)-6-phenylpyrimidin-4(3H)-one] gave a pIC50 of 5.30 to 6.30. With `C[C@@H]1CN(C(=O)c2cn(C[C@]3(O)CCN(C(=O)[C@H](C)CC4CCCCC4)CC3(C)C)c(=O)cc2-c2ccccc2)CCN1` [Example 213, 1-(((S)-1-((R)-3-Cyclohexyl-2-methylpropanoyl)-4-hydroxy-3,3-dimethylpiperidin-4-yl)methyl)-5-((R)-3-methylpiperazine-1-carbonyl)-4-phenylpyridin-2(1 H)-one] the pIC50 was > 6.30. For `C[C@H](CC1CCCCC1)C(=O)N1CC[C@@](O)(Cn2cc(C(=O)N3CCC(O)CC3)c(-c3ccccc3)cc2=O)C(C)(C)C1` [Example 228, 1-(((S)-1-((R)-3-Cyclohexyl-2-methylpropanoyl)-4-hydroxy-3,3-dimethylpiperidin-4-yl)methyl)-5-(4-hydroxypiperidine-1-carbonyl)-4-phenylpyridin-2(1 H)-one], the pIC50 was > 6.30. With `C[C@H](CC1CCCCC1)C(=O)N1CC[C@@](O)(Cn2cc(C(=O)O)c(-c3ccccc3)cc2=O)C2(CCCC2)C1` [Example 253, 1-(((S)-7-((R)-3-Cyclohexyl-2-methylpropanoyl)-10-hydroxy-7-azaspiro[4.5]decan-10-yl)methyl)-6-oxo-4-phenyl-1,6-dihydropyridine-3-carboxylic acid] the pIC50 was > 6.30. With `C[C@H](CC(F)(F)F)C(=O)N1CC[C@@](O)(Cn2cc(C(=O)N3CCNCC3)c(-c3ccccc3)cc2=O)C2(CCCC2)C1` [Example 217, 1-(((S)-10-Hydroxy-7-((R)-4,4,4-trifluoro-2-methylbutanoyl)-7-azaspiro[4.5]decan-10-yl)methyl)-4-phenyl-5-(piperazine-1-carbonyl)pyridin-2(1H)-one] the pIC50 was > 6.30. For `C[C@H](CC1CCCCC1)C(=O)N1CC[C@@](O)(Cn2cc(C(=O)N3CCNCC3)c(-c3ccccc3)cc2=O)C2(CCCC2)C1` [Example 212, 1-(((S)-7-((R)-3-Cyclohexyl-2-methylpropanoyl)-10-hydroxy-7-azaspiro[4.5]decan-10-yl)methyl)-4-phenyl-5-(piperazine-1-carbonyl)pyridin-2(1H)-one], the pIC50 was > 6.30.
